Measured values: ChEMBL document CHEMBL5126573, “Scaffold modifications to the 4-(4,4-dimethylpiperidinyl) 2,6-dimethylpyridinyl class of HIV-1 allosteric integrase inhibitors” (Bioorg Med Chem, 2022)

System: Human immunodeficiency virus 1
Test: Antiviral activity against recombinant HIV1 NLRep-Rluc harbouring polymorphic 124T/125T integrase infected in human MT2 cells assessed as inhibition of virus growth in presence of fetal bovine serum by measuring luciferase activity after 5 days by Luciferase Assay
Format: functional, organism-based
Conditions: Human immunodeficiency virus 1, NLRep-Rluc, MT2, 120 h
In the case of `Cc1c([C@H](OC(C)(C)C)C(=O)O)c(N2CCC(C)(C)CC2)c(-c2ccc(OCCc3ccc(F)cc3)cc2)c2cccn12`, the EC50 is reported as 27.7 nM. `Cc1c([C@H](OC(C)(C)C)C(=O)O)c(N2CCC(C)(C)CC2)c(-c2ccc(OCCc3ccc(F)cc3)cc2)c2nc(C(C)C)cn12` showed an EC50 of 1.2 nM. `Cc1c([C@H](OC(C)(C)C)C(=O)O)c(N2CCC(C)(C)CC2)c(-c2ccc(OCCc3ccc(F)cc3)cc2)c2nc(C3CC3)cn12` gave an EC50 of 4.2 nM. `Cc1c([C@H](OC(C)(C)C)C(=O)O)c(N2CCC(C)(C)CC2)c(-c2ccc3c(c2)CCN(c2ncnc4c2oc2ccccc24)C3)c2cnnn12` gave an EC50 of 3.8 nM. `Cc1c([C@H](OC(C)(C)C)C(=O)O)c(N2CCC(C)(C)CC2)c(-c2ccc(OCCc3ccc(F)cc3)cc2)c2nc(CC(C)C)cn12` showed an EC50 of 1.2 nM.

System: Human immunodeficiency virus 1
Test: Antiviral activity against recombinant HIV1 NLRep-Rluc harbouring polymorphic 124N/125A integrase infected in human MT2 cells assessed as inhibition of virus growth in presence of fetal bovine serum by measuring luciferase activity after 5 days by Luciferase Assay
Format: functional, organism-based
Conditions: Human immunodeficiency virus 1, NLRep-Rluc, MT2, 120 h
`Cc1c([C@H](OC(C)(C)C)C(=O)O)c(N2CCC(C)(C)CC2)c(-c2ccc(OCCc3ccc(F)cc3)cc2)c2cccn12` showed an EC50 of 32.6 nM. Work on `Cc1c([C@H](OC(C)(C)C)C(=O)O)c(N2CCC(C)(C)CC2)c(-c2ccc(OCCc3ccc(F)cc3)cc2)c2nc(C(C)C)cn12` yielded an EC50 of 3.1 nM. For `Cc1c([C@H](OC(C)(C)C)C(=O)O)c(N2CCC(C)(C)CC2)c(-c2ccc(OCCc3ccc(F)cc3)cc2)c2nc(C3CC3)cn12`, the EC50 was 11.1 nM. `Cc1c([C@H](OC(C)(C)C)C(=O)O)c(N2CCC(C)(C)CC2)c(-c2ccc3c(c2)CCN(c2ncnc4c2oc2ccccc24)C3)c2cnnn12` gave an EC50 of 6.4 nM. `Cc1c([C@H](OC(C)(C)C)C(=O)O)c(N2CCC(C)(C)CC2)c(-c2ccc(OCCc3ccc(F)cc3)cc2)c2nc(CC(C)C)cn12` gave an EC50 of 2.6 nM.

System: Human immunodeficiency virus 1
Test: Antiviral activity against recombinant HIV1 NLRep-Rluc harbouring polymorphic 124A/125A integrase infected in human MT2 cells assessed as inhibition of virus growth in presence of fetal bovine serum by measuring luciferase activity after 5 days by Luciferase Assay
Format: functional, organism-based
Conditions: Human immunodeficiency virus 1, NLRep-Rluc, MT2, 120 h
For `Cc1c([C@H](OC(C)(C)C)C(=O)O)c(N2CCC(C)(C)CC2)c(-c2ccc(OCCc3ccc(F)cc3)cc2)c2cccn12`, the EC50 was 38.2 nM. In the case of `Cc1c([C@H](OC(C)(C)C)C(=O)O)c(N2CCC(C)(C)CC2)c(-c2ccc(OCCc3ccc(F)cc3)cc2)c2nc(C(C)C)cn12`, the EC50 is reported as 2.9 nM. Compound `Cc1c([C@H](OC(C)(C)C)C(=O)O)c(N2CCC(C)(C)CC2)c(-c2ccc(OCCc3ccc(F)cc3)cc2)c2nc(C3CC3)cn12` has an EC50 of 10.7 nM. With `Cc1c([C@H](OC(C)(C)C)C(=O)O)c(N2CCC(C)(C)CC2)c(-c2ccc3c(c2)CCN(c2ncnc4c2oc2ccccc24)C3)c2cnnn12` the EC50 was 4 nM. Work on `Cc1c([C@H](OC(C)(C)C)C(=O)O)c(N2CCC(C)(C)CC2)c(-c2ccc(OCCc3ccc(F)cc3)cc2)c2nc(CC(C)C)cn12` yielded an EC50 of 3.5 nM.

System: not listed separately
Test: Cytotoxicity against human MT2 cells infected with HIV1 NLRep-Rluc harbouring polymorphic 124T/125T integrase
Format: toxicity, cell-based
Conditions: MT2 cells infected with HIV-1 NLRep-Rluc
With `Cc1c([C@H](OC(C)(C)C)C(=O)O)c(N2CCC(C)(C)CC2)c(-c2ccc(OCCc3ccc(F)cc3)cc2)c2cccn12` the CC50 was at least 18200 nM. `Cc1c([C@H](OC(C)(C)C)C(=O)O)c(N2CCC(C)(C)CC2)c(-c2ccc(OCCc3ccc(F)cc3)cc2)c2nc(C(C)C)cn12` showed a CC50 of at least 10300 nM. In the case of `Cc1c([C@H](OC(C)(C)C)C(=O)O)c(N2CCC(C)(C)CC2)c(-c2ccc(OCCc3ccc(F)cc3)cc2)c2nc(C3CC3)cn12`, the CC50 is reported as at least 10300 nM. In the case of `Cc1c([C@H](OC(C)(C)C)C(=O)O)c(N2CCC(C)(C)CC2)c(-c2ccc3c(c2)CCN(c2ncnc4c2oc2ccccc24)C3)c2cnnn12`, the CC50 is reported as at least 3000 nM. For `Cc1c([C@H](OC(C)(C)C)C(=O)O)c(N2CCC(C)(C)CC2)c(-c2ccc(OCCc3ccc(F)cc3)cc2)c2nc(CC(C)C)cn12`, the CC50 was at least 10300 nM.

System: not listed separately
Test: Metabolic stability in human liver microsomes assessed as half life
Format: ADME, Microsome
Conditions: not given
`Cc1c([C@H](OC(C)(C)C)C(=O)O)c(N2CCC(C)(C)CC2)c(-c2ccc(OCCc3ccc(F)cc3)cc2)c2nc(CC(C)C)cn12` showed a half-life of over 2 h.

System: not listed separately
Test: Metabolic stability in rat liver microsomes assessed as half life
Format: ADME, Microsome
Conditions: not given
`Cc1c([C@H](OC(C)(C)C)C(=O)O)c(N2CCC(C)(C)CC2)c(-c2ccc(OCCc3ccc(F)cc3)cc2)c2nc(CC(C)C)cn12` showed a half-life of over 2 h.

System: not listed separately
Test: Metabolic stability in Sprague-Dawley rat assessed as clearance at 1 mg/kg, iv
Format: ADME, organism-based
Conditions: in vivo
`Cc1c([C@H](OC(C)(C)C)C(=O)O)c(N2CCC(C)(C)CC2)c(-c2ccc3c(c2)CCN(c2ncnc4c2oc2ccccc24)C3)c2cnnn12` gave a clearance of 1.9 mL/min/kg. Work on `Cc1c([C@H](OC(C)(C)C)C(=O)O)c(N2CCC(C)(C)CC2)c(-c2ccc(OCCc3ccc(F)cc3)cc2)c2nc(CC(C)C)cn12` yielded a clearance of 44.6 mL/min/kg.

System: not listed separately
Test: AUC (0 to infinity) in Sprague-Dawley rat at 5 mg/kg, po
Format: ADME, organism-based
Set-up: time infinity, dose 5 mg/kg, route po
Conditions: in vivo
For `Cc1c([C@H](OC(C)(C)C)C(=O)O)c(N2CCC(C)(C)CC2)c(-c2ccc3c(c2)CCN(c2ncnc4c2oc2ccccc24)C3)c2cnnn12`, the AUC(0-inf) was 21.7 µM·h.

System: not listed separately
Test: Oral bioavailability in Sprague-Dawley rat at 5 mg/kg
Format: ADME, organism-based
Conditions: in vivo
For `Cc1c([C@H](OC(C)(C)C)C(=O)O)c(N2CCC(C)(C)CC2)c(-c2ccc3c(c2)CCN(c2ncnc4c2oc2ccccc24)C3)c2cnnn12`, the bioavailability was 33%.

System: not listed separately
Test: Permeability of the compound at pH 7.4 by PAMPA assay
Format: ADME
Conditions: read-out: permeability
With `Cc1c([C@H](OC(C)(C)C)C(=O)O)c(N2CCC(C)(C)CC2)c(-c2ccc3c(c2)CCN(c2ncnc4c2oc2ccccc24)C3)c2cnnn12` the Papp was 79 ×10⁻⁶ cm/s.

System: not listed separately
Test: Toxicity in rat H4-II-E cells assessed as fold change in lipid droplet formation at 10 uM incubated for 72 hrs boron-dipyrromethene staining based by high content screening (HCS) fluorescence analysis relative to control
Format: cell-based
Conditions: not given
In the case of `Cc1c([C@H](OC(C)(C)C)C(=O)O)c(N2CCC(C)(C)CC2)c(-c2ccc3c(c2)CCN(c2ncnc4c2oc2ccccc24)C3)c2cnnn12`, the “fold change (FC)” value is reported as 1.3.

System: not listed separately
Test: Toxicity in human Huh-7 cells assessed as fold change in lipid droplet formation at 10 uM incubated for 72 hrs boron-dipyrromethene staining based by high content screening (HCS) fluorescence analysis relative to control
Format: cell-based
Conditions: huh-7, 72 h
In the case of `Cc1c([C@H](OC(C)(C)C)C(=O)O)c(N2CCC(C)(C)CC2)c(-c2ccc3c(c2)CCN(c2ncnc4c2oc2ccccc24)C3)c2cnnn12`, the “fold change (FC)” value is reported as 2.7.
